Each structure is given as a SMILES string. Converted amounts (≈) assume the structure as drawn.

These results are taken from ChEMBL document CHEMBL5137025, “Tuberculosis Drug Discovery: Challenges and New Horizons” (J Med Chem, 2022).

Data set [1] concerns Mycobacterium tuberculosis. The data set can be described thus: microbe, parasite or virus in culture. The note with it: H37Rv.
Description: Antibacterial activity against Mycobacterium tuberculosis H37Rv assessed as inhibition of bacterial growth
The test system of data set [2] is Mycobacterium tuberculosis. It counts as functional. The settings on record: H37Rv, time 6 day.
Data set [3] deals with Mycobacterium tuberculosis. It counts as functional. The note with it: H37Rv, 168 h, time 7 day.
Data set [4] deals with Mycobacterium tuberculosis. The data set can be described thus: Bactericidal activity against Mycobacterium tuberculosis H37Rv in chronic Mtb infection BALB/c mouse model assessed as log10 CFU kill at 20 mg/kg, po qd via gavage measured after 4 weeks. It counts as functional.
Data set [5] has as its system Mycobacterium tuberculosis. Description: Antibacterial activity against Mycobacterium tuberculosis assessed as inhibition of bacterial growth. In kind it is functional.
Data set [6] concerns Mycobacterium tuberculosis. The data set can be described thus: Antibacterial activity against Mycobacterium tuberculosis in chronic Mtb infection mouse model assessed as reduction in log10 CFU at 100 mg/kg bid. It counts as functional.
Data set [7] relates to Mycobacterium tuberculosis. In kind it is functional. The settings on record: dose 100 mg/kg; route po; time 4 weeks.
For data set [8], the system named is Mycobacterium tuberculosis. The data set can be described thus: Antibacterial activity against Mycobacterium tuberculosis in acute Mtb infection BALB/c mouse model assessed as reduction in log10 CFU in lungs at 100 mg/kg for 3 weeks. In kind it is functional.
Data set [9] concerns Mycobacterium tuberculosis. The data set can be described thus: Antibacterial activity against non-replicating Mycobacterium tuberculosis assessed as inhibition of bacterial growth. In kind it is functional.
Data set [10] can be described thus: Cytotoxicity against human MRC5 cells. In kind it is toxicity, cell-based.
The subject of data set [11] is Mycobacterium tuberculosis. In kind it is functional. The note with it: H37Rv, 168 h, time 7 day. The source holds these as a separate data set.
Data set [12] deals with Mycobacterium tuberculosis. The data set can be described thus: Antibacterial activity against Mycobacterium tuberculosis Erdman in acute Mtb infection BALB/c mouse model assessed as reduction in log10 CFU in lungs at 200 mg/kg, po daily via gavage for 3 weeks. In kind it is functional.
Data set [13] concerns Mycobacterium tuberculosis. It counts as functional. The note with it: H37Rv.
A short description of data set [14]: Aqueous solubility of compound in PBS at pH 7.4 incubated for 1 hr. In kind it is physicochemical.
The test system of data set [15] is HepG2. The data set can be described thus: Cytotoxicity against human HepG2 cells treated for 72 hrs by MTT assay. In kind it is functional. Background: Tetrazolium dyes change colour on reduction, which living cells bring about.
Data set [16] addresses Voltage-gated inwardly rectifying potassium channel KCNH2 (Homo sapiens, UniProt Q12809).
Data set [17] is described as follows: Cytotoxicity against African green monkey Vero cells treated for 72 hrs by MTT assay. It counts as toxicity, cell-based. The note with it: chlorocebus sabaeus.
For data set [18], the system named is Mycobacterium tuberculosis. Description: Antibacterial activity against Mycobacterium tuberculosis in chronic Mtb infection BALB/c mouse model assessed as reduction in log10 CFU in lungs at 200 mg/kg for 4 weeks. In kind it is functional.
Data set [19] relates to Mycobacterium tuberculosis. It counts as functional. The note with it: dose 50 mg/kg; route po; time 4 weeks.
Data set [20] can be described thus: Oral bioavailability in Swiss Webster mouse at 10 mg/kg measured for 0.25 to 24 hrs by LC-MS/MS analysis. In kind it is ADME, organism-based. The note with it: in vivo, time 0.25-24 hrs.
Data set [21] concerns Mycobacterium tuberculosis. It counts as functional, H37Rv. The note with it: dose 25 mg/kg; route po; time 8 weeks.
Data set [22] deals with Mycobacterium tuberculosis. In kind it is functional. The settings on record: H37Rv, 168 h, time 7 day. This is another data set of the same source.
Data set [23] is described as follows: Solubility of the compound. In kind it is physicochemical.
In data set [24] the test system is HepG2. Description: Cytotoxicity against human HepG2 cells. In kind it is functional.
The nature of data set [25]: Oral bioavailability in mouse. It counts as ADME, organism-based. The note with it: in vivo.

Voltage-gated inwardly rectifying potassium channel KCNH2, sequence (Q12809 whole entry): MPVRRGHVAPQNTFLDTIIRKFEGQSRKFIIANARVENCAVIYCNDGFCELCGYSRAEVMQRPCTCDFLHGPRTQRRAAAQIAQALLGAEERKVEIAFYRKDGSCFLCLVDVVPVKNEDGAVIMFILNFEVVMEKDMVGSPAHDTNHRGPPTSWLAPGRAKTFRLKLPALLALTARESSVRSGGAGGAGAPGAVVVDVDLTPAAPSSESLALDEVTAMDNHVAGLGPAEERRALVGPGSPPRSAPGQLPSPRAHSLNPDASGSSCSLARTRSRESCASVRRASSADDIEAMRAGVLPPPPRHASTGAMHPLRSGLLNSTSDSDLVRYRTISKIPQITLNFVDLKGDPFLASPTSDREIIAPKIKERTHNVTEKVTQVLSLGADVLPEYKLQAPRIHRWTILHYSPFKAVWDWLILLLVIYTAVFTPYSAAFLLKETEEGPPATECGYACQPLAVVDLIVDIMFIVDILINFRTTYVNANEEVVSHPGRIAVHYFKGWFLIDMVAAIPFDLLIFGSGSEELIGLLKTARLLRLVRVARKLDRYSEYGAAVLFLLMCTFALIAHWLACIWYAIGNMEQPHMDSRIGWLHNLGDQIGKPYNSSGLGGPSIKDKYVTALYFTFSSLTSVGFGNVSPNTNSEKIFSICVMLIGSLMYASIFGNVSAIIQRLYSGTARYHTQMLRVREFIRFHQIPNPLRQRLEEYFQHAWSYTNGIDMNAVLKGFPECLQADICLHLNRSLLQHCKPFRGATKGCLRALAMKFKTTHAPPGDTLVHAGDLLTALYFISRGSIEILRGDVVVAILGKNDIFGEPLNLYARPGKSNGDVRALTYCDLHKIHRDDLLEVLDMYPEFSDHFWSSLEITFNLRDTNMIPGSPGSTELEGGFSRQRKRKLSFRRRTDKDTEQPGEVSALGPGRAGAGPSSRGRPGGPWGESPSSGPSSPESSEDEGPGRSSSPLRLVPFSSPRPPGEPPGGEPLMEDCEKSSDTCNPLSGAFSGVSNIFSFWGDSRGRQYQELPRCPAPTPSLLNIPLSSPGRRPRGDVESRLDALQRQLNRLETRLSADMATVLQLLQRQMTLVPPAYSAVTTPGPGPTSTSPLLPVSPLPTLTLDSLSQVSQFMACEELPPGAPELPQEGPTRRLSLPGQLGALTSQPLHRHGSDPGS

`CC(Nc1nc(N2CCCCC2)nc2ccccc12)c1ccccc1` (stereo not drawn) showed an MIC80 in data set [1] of 25 µM (≈ 8.31 µg/mL). In turn, `CNc1nc(SC)nc2ccccc12` showed an MIC in data set [2] of 0.13 µM (≈ 0.0267 µg/mL). In data set [1], `O=C(C1CCN(c2nnc(-n3cccc3)s2)CC1)N1CCC(Cc2ccccc2)CC1` returned an MIC90 of 4 µM (≈ 1.74 µg/mL). Consider `c1cc2c(s1)CCOC21CCN(Cc2ccc3c(c2)OCCO3)CC1`, for which, in [1], the MIC90 came out at 0.3 µM (≈ 0.107 µg/mL). In data set [3], `COc1ncccc1Nc1cc2nc3ccccc3n(-c3ccc(OC(F)(F)F)cc3)c-2c/c1=N\C1CCC(OC)CC1` (stereo not drawn) yielded an MIC90 of less than 0.008 µM. For the same molecule, the Activity in data set [4] was 1.7 log10CFU. Regarding `CCNC(=O)Nc1nc2cc(-c3cnc(C(C)(C)O)nc3)c(F)c([C@H]3CCCO3)c2[nH]1`, the MIC90 in data set [5] is 0.07 µM (≈ 0.03 µg/mL). As for `CCNC(=O)Nc1nc2cc(-c3cnc(C(C)(C)OP(=O)(O)O)nc3)c(F)c([C@H]3CCCO3)c2[nH]1`, the Activity in [6] is 2.5 log10CFU. With `CC1(C)CCC(NC(=O)c2cc3c(Cl)cc(Cl)cc3[nH]2)CC1`, the Activity in [7] turned out to be 3.1 log10CFU. In data set [1], the MIC90 worked out at 0.02 µM (≈ 0.00679 µg/mL). For the molecule `CCOC(=O)NC(=O)c1ccsc1NC(=O)c1nc2ccccc2s1`, in data set [8], the Activity amounted to 2.9 log10CFU. The molecule further showed an MIC90 in data set [1] of 0.23 µM (≈ 0.0863 µg/mL). In [1], `Fc1ccc(-c2nnc3sc(COc4ccccc4)nn23)cc1` gave an MIC of 25 µM (≈ 8.16 µg/mL). One may read the CC50 as the concentration at which the toxic effect on the cells reaches its halfway point. As to `O=C(N/N=C/c1cccc(Oc2no[n+]([O-])c2S(=O)(=O)c2ccccc2)c1)c1ccncc1`, the MIC90 in data set [9] came out at 6.7 µM (≈ 3.12 µg/mL). This molecule returned a CC50 in data set [10] of 30 µM. The molecule further had an MIC in data set [11] of 1.6 µM (≈ 0.745 µg/mL). In data set [12], the Activity is listed as more than 6 log10CFU. In the same order, the values of `O=C(N/N=C/c1ccc(Oc2no[n+]([O-])c2S(=O)(=O)c2ccccc2)cc1)c1ccncc1` are 9.8 µM (≈ 4.56 µg/mL), 43 µM, 1 µM (≈ 0.465 µg/mL) and more than 6 log10CFU. Turning to `CCOC(=O)c1c(-c2ccccc2)oc2ccc(O)c(CN3CCC(C)CC3)c12`, the MIC90 in data set [1] is 2.5 µM (≈ 0.984 µg/mL). As for `O=c1c(NCc2ccccn2)c(-c2ccc(C(F)(F)F)cc2)c1=O`, the MIC80 in data set [1] stood at 6.2 µM (≈ 2.06 µg/mL).

In general, solubility refers to the dissolved amount per volume that the medium holds. `Cc1ccn(C(C)c2nnc(Nc3ccn(Cc4c(F)cccc4Cl)n3)s2)n1` (stereo not drawn) had an MIC90 in data set [13] of 1 µM (≈ 0.418 µg/mL). The same molecule returned a solubility at 1 h in data set [14] of 9 µM (≈ 3.76 µg/mL). As usually defined, the IC50 is the concentration at which inhibition is half-maximal. In the case of `CCOC(=O)NC(=O)c1ccsc1NC(=O)c1nc2cnccc2s1`, in [15], the CC50 was more than 100 µM. In data set [16], this molecule displayed a half-maximal inhibitory concentration (IC50) of more than 30 µM. The CC50 at 72 h in data set [17] is more than 100 µM. For the same molecule, the values for the Activity in data set [8] and in data set [18] were 2.3 log10CFU and more than 1.7 log10CFU, respectively. The same molecule showed an MIC90 in [1] of 0.089 µM (≈ 0.0335 µg/mL). The term bioavailability denotes the share of a dose that reaches the circulation, judged against a reference dose that is usually intravenous. In the case of `C[C@@H]1[C@H]2C[C@@H](C[C@H]1NC(=O)c1cc3c(F)cc(F)cc3[nH]1)C2(C)C`, the Activity in data set [19] worked out at 4.7 log10CFU; in [7], 3.6 log10CFU. Further, the bioavailability in data set [20] amounted to 96%.

`N=C(N)NC(=O)c1nc(-c2cc3ccccc3o2)c(N)nc1N` showed an MIC in data set [1] of 4 µM (≈ 1.25 µg/mL). `CON=C1CCC(CN2CCN(c3nc(=O)c4cc(C(F)(F)F)cc([N+](=O)[O-])c4s3)CC2)CC1` (stereo not drawn) registered an Activity in data set [21] of 1.8 log10CFU. For the same molecule, the MIC90 in [22] was found to be 0.028 µM (≈ 0.014 µg/mL).

For `O=S1(=O)C[C@H](O)[C@@H](N2CCN(c3ccccc3Cl)CC2)C1`, the MIC in [1] came out at 0.76 µM (≈ 0.251 µg/mL). Take `FC(F)(F)c1ccc(Oc2ccc(Nc3ncnc4ccccc34)cc2)cc1`: in [1], the MIC50 is 25 µM (≈ 9.53 µg/mL). In turn, `FC(F)(F)Oc1ccc(Oc2ccc(CN3CCC4(CC3)OCCc3sccc34)cc2)cc1` registered a solubility in data set [23] of 6 µM (≈ 2.85 µg/mL). This molecule had a CC50 in data set [24] of 36 µM. The molecule also showed a bioavailability in data set [25] of 55%. This molecule showed an MIC90 in [1] of 0.06 µM (≈ 0.0285 µg/mL).
